Assay [1] relates to squalene synthase (rat liver microsomal protein). Description: Inhibition of squalene synthase (squalene formation from tritiated farnesyl pyrophosphate). In kind it is biochemical. The settings on record: at 2.5 μM; rat liver microsomes, 20 μM [3H]-farnesyl pyrophosphate, 15 min, 37° C. As for the experimental part: (a) Inhibition of Squalene synthase
In this test, the ability of a compound to prevent the formation of squalene from a radioactive substrate (tritiated farnesyl pyrophosphate) is assessed.
The test compound is incubated at a concentration of 25 micromolar in 200 μl of a buffered solution containing potassium phosphate (50 mM), MgCl2 (4.95 mM), KF (9.9 mM), NADPH (0.9 mM) and rat liver microsomal protein (20 μg). Rat liver microsomes are prepared by the method described in published European Patent Application No. 324,421 and stored in liquid nitrogen prior to assay. Assay vials are kept at 37° C. throughout the incubation.
The reaction is started with the addition of the substrate (1-[^3 H]-farnesyl pyrophosphate), final concentration 20 μM, and stopped after 15 minutes reaction time with the addition of 50 μl of 4% KOH. The reaction products are separated from unreacted substrate after application to a C-18 octadecyl 1 ccBond column (Analytichem Int product No. 617101). An aqueous fraction is eluted with 250 μl of 0.1M KOH. Squalene is then eluted with 1.0 ml 10% ethylacetate in hexane and radioactivity determined. The difference in radioactivity in the presence and absence of the test compound is used to determine the level of inhibition. […] The IC50 can then be determined from a plot of percentage inhibition against concentration of test compound.
(In general: Microsomes from liver hold many membrane-bound enzymes, among them those of drug oxidation.)

Assay [2] deals with de novo hepatic cholesterol synthesis from 14C-acetate. Description: Acute rat cholesterol synthesis assay. It is filed as in vivo. The settings on record: plasma cholesterol specific radioactivity after ip [2-14C]-acetate given 1 hour after the compound. How it is done: (b) Acute rat cholesterol synthesis assay.
This is an acute in vivo test in the rat to measure de novo hepatic cholesterol synthesis from exogenously administered ^14 C-acetate.
Female rats (35-55 g) are housed in reverse lighting conditions (red light from 0200 h-1400 h) for a period of about 2 weeks prior to test. Animals are allowed free access to chow and drinking water throughout this period. At test, animals should weigh 125-150 g.
Test compounds may be administered by oral gavage, dissolved or suspended in 0.5% polysorbate, or by ip or iv dosing. Control animals receive vehicle alone. After 1 hour the rats are injected ip with 25 μCi [2-^14 C]-acetate (NEN DUPONT, specific activity, 45-60 mCi/mmol NEC-085H, or AMERSHAM specific activity, 50-60 mCi/mmol CFA 14) in a volume of 0.25 ml saline (100 μCi/ml). After a further hour, rats are terminally anaesthetised with halothane and a blood sample obtained from the abdominal vena cava.
1 ml of plasma is lyophilised and then saponified in 2 ml ethanolic KOH (1 part 33% KOH, 9 parts ethanol) at 75° C. for 2 hours. After addition of an equal quantity of water, non-saponifiable lipids are extracted with two 5 ml volumes of hexane. The hexane extracts are evaporated to dryness and the residues dissolved in ethanol to determine cholesterol specific radioactivity. ED50 values can be determined in the standard way.

In the case of `OC1(C#Cc2ccc(-c3ccccn3)cc2)CN2CCC1CC2` (centres unmarked) [Example 2, 3-[2-(4-[2-pyridyl]phenyl)ethynyl]-3-hydroxyquinuclidine], the “inhibition of squalene synthase” value in assay [1] is listed as “about 98%”. In assay [2], the ED50 (usually the midpoint of the dose-response relation) stood at 8 mg/kg.
